Among the data in patent publication US6090785A, “Substituted N-carboxyalkylpeptidyl derivatives as antidegenerative agents” (Merck & Co., Inc., priority 1992, dated 2000) are Ki values, retold here.

Each structure is given as a SMILES string.

Holding throughout (assay type): biochemical
For one experiment, the target named is stromelysin (Homo sapiens, UniProt P08254). The experiment in a line: Stromelysin inhibition assay (HPLC/fluorometric determination of remaining peptide substrate). To be noted: SLN = stromelysin; substrate 5 μM, enzyme 1.5 nM. As for the experimental part:
Briefly the assay may be carried out by incubating for four hours the inhibitor in dimethyl sulfoxide (DMSO) and 25 μl of 0.3726 μg/ml stromelysin, then adding 60 μl of 11.24 μM substrate and incubating the resulting mixture for 18 hours. The final concentrations of the substrate is 5 μM and of the enzyme 1.5 nM. At this time 50 μl of 0.3 M H3 PO4 is added and a portion of the mixture injected onto an HPLC column and the remaining substrate determined by fluorometric detection. The area of the substrate is quantitated and is plotted as a function of the inhibitor concentration. The Ki is calculated using the following equation: [formula] where area inhibited and ^area control are integrated HPLC areas for substrate for inhibited and uninhibited reactions, respectively; [I] is the inhibitor concentration; [S] is the substrate concentration.

For another experiment, the target named is T1, collagenase (Homo sapiens, UniProt P03956).
T1 sequence (P03956 100-469): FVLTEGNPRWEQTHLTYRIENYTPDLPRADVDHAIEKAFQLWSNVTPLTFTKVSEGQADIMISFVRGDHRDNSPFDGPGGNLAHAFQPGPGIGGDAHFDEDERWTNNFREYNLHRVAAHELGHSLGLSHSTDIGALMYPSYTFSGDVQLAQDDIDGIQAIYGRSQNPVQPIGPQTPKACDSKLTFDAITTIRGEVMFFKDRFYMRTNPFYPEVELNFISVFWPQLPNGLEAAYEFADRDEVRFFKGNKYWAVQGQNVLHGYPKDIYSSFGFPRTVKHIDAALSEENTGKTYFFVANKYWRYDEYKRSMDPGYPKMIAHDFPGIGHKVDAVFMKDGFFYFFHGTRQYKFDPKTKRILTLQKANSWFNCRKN
The experiment is described as follows: Collagenase inhibition assay with fluorogenic Dnp-peptide substrate (method of Stack et al). The settings on record: CGase = collagenase. The source says: (§1) The capacity of representative compounds of formula I to inhibit collagenase and gelatinase lysis may be determined using the method of M. S. Stack et al, Biol. Chem 264, 4277 (1989). In such assay, a fluorogenic substrate Dnp-Pro-Leu-Gly-Leu-Trp-Ala-D-Arg.(SEQ ID NO:2) where the "Dnp" designation indicates a "dinitrophenyl" group and this group is indicated by "Xaa" in the Sequence Listing. is used. The tryptophan fluorescence is efficiently quenched by the dinitrophenyl group but when it is hydrolyzed by collagenase or gelatinase, there is increased fluorescence with cleavage occurring at the Gly-Leu bond.
(§2) Assays were performed in 0.05M Tris, 5 mM CaCl2, 0.2M NaCl up to 20% Me2 SO, pH 7.7 at either […] or 37° C. using peptide concentrations of 2.5 to 40 μM.
(§3) After addition of enzyme to initiate the reaction, the initial rate of substrate hydrolysis is determined by monitoring the increase in fluorescence emission at 346 nm. using an excitation wavelength of 280 nm. To determine the inhibitory activity the hydrolysis is measured fluorimetrically in the presence of increasing concentrations of the inhibitor and the Ki is determined.

The next experiment has as its target gelatinase. The experiment is described as follows: Gelatinase inhibition assay with fluorogenic Dnp-peptide substrate (method of Stack et al). To be noted: Gel = gelatinase.
Source text: as §1, §2, §3

Chain of stromelysin (P08254 100-477): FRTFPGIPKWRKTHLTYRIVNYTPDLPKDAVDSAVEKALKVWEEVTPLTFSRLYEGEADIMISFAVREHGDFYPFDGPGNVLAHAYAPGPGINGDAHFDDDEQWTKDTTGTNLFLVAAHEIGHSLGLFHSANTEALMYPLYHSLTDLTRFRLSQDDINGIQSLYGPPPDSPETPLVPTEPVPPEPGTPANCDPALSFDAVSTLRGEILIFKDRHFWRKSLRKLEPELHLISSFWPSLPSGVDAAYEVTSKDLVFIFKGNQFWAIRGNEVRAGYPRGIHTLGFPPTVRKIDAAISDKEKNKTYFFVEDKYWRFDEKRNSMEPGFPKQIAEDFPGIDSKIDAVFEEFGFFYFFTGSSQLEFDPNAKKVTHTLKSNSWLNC

On to `CCCCCCCC[C@H](N[C@H](C)C(=O)O)C(=O)N[C@@H](CC(C)C)C(=O)Nc1ccccc1` [Compound 9b], for which the inhibition constant (Ki) at stromelysin is 0.57 µM; on collagenase, above 10 µM; on gelatinase it was 0.34 µM.

Turning to `CC(C)C[C@H](NC(=O)[C@H](CCCCCCCCCN)N[C@H](C)C(=O)O)C(=O)Nc1ccccc1` [Compound 9a], the Ki at stromelysin was 0.24 µM; on collagenase, above 10 µM; on gelatinase it was 0.5 µM.

For the compound `CCCCCCCCCC[C@H](N[C@H](C)C(=O)O)C(=O)N[C@@H](CC(C)C)C(=O)Nc1ccccc1` [Compound 9e], the figures for the Ki on stromelysin and at gelatinase were 0.85 µM and 0.56 µM, respectively.

With `C[C@@H](N[C@@H](CCCCCCCCCN)C(=O)N[C@@H](CCCNC(=N)N)C(=O)Nc1ccccc1)C(=O)O` [Compound 9d], the Ki on stromelysin amounted to 0.37 µM; at gelatinase it was 0.11 µM.

On to `CCCCCCCC[C@H](N[C@H](C)C(=O)O)C(=O)N[C@@H](CCCNC(=N)N)C(=O)Nc1ccccc1` [Compound 9c], for which the inhibition constant Ki on stromelysin was found to be 1.6 µM; on gelatinase, 0.12 µM.

A word on the Ki: it is the equilibrium dissociation constant of an inhibitor or competing ligand from its target.
